Patent publication US20130123326A1, “ALLOSTERIC BINDING COMPOUNDS” (REGION MIDTJYLLAND, priority 2009, published 2013)

Key:
hSERT [1] = molecular target: T1, hSERT (Homo sapiens, UniProt P31645); experiment: Dissociation assay with [3H]-citalopram and hSERT membrane preparations; assay type: binding
Procedure: Dulbecco's modified Eagle's medium, fetal bovine serum, trypsin, and penicillin/streptomycin were purchased from Invitrogen. Cell culture flasks were from NUNC. MicroScint-20 scintillation mixture was from Packard. [^3H]-Citalopram (85 Ci/mmol) was a gift from H. Lundbeck A/S (Valby, Denmark). Fugene-6 transfection reagent was from Roche Molecular Biochemicals. All chemicals are commercially available. Stock solutions of the allosteric ligands were prepared as 100 mM in EtOH.
The pcDNA3 plasmid vector containing the hSERT gene was used for transfection.
17.5 μl Fugene-6 (Roche Molecular Biochemicals) were mixed with 280 μl Dulbecco's modified Eagle's medium, and incubated at room temperature for 5 minutes. 10 μg of hSERT plasmid were added and the mixture was further incubated at least 15 minutes. […] The cells were plated at 35% confluency in a 150 mm dish, and grown at 37° C. for 64 h. Prior to harvesting the dish was rinsed in PBS. Cells were harvested with a cell scraper in buffer 1 (50 mM Tris-base, 150 mM NaCl, 20 mM EDTA, pH 7.4). After centrifugation (3000 g at 4° C. for 10 mins), cells were suspended and homogenized with an IKA Ultra-Turrax from Rose Scientific Ltd (Edmonton, Alberta, Canada) for 20 s in buffer 1. Membranes were pelleted by ultracentrifugation (12 000 g at 4° C. for 15 min) and homogenization was repeated in buffer 1. Finally, after ultracentrifugation (12000 g, 4° C., 15 min) membranes were resuspended in 1 ml buffer 3 (50 mM Tris-base, 120 mM NaCl, 5 mM KCl, pH 7.4) and stored at −80° C.
Dissociation Assay with [^3H]-Citalopram and Membrane Preparations.
SERT-[^3H]-citalopram complex was formed by incubating hSERT membrane preparation and radioligand in buffer 3 during a 60 min incubation at 4° C. Radioligand was present at a concentration 10 times the Kd value. The time kinetic of dissociation was followed by adding 10 μL complex solution to 250 μL buffer 3 in 96-well plates and incubating subsequently for increasing time intervals at RT. Reactions were terminated by filtration through GF/C glass-fibre filters (Unifilter, Perkin Elmer Life Sciences), preincubated with 40 μl 0.5% polyethyleneimine, using a Pachard Bell cell harvester, and subsequently washed three times with water. Filters were soaked in 40 μl Microscint 20 scintillation liquid (Pachard Bell). Bound radioactivity was determined by direct counting of plates using a Packard Bell microplate scintillation counter. Dissociation curves were obtained by plotting residual binding vs. time of dissociation.
The concentrations of allosteric compound in the dissociation buffer range from 400-0.2 μM.
The relative off-rate is expressed as the off-rate of the radioligand at a given concentration of allosteric compound, normalized to the off-rate of radioligand in the absence of allosteric compound.
The maximum stabilization factor is defined as the estimated upper plateau of the sigmoidal response curve, and describes how many folds the off-rate of bound radioligand from SERT can be attenuated in the presence of increasing concentrations of allosteric compound in the dissociation buffer.

hSERT [2] = molecular target: T1, hSERT; experiment: 5-HT uptake inhibition assay: allo-ligand potentiating effect on uptake inhibition by S-citalopram; assay type: cell-based; details: [3H]5-HT uptake, hSERT-transfected HEK-293-MSR cells; allosteric ligand in the 600 nM range
Procedure: Cell lines expressing the serotonin transporter constitute the most popular in vitro screening system for classical antidepressants, which will inhibit the transporter in uptake of serotonin. The inhibitory potency of the allosteric ligands is determined and expressed as an IC50 value in that a lowering of the IC50 values, when the concentration of the allosteric ligands increases, indicates an add-on inhibitory effect due to the presence of the allosteric ligand.
Transfection of HEK-293-MSR Cell Cultures
For transfections, 0.2 μg of pcDNA3 plasmid vector containing a hSERT cDNA insert and 0.4 μl of Fugene6 (Roche) were used per cm2 of plating area. Plasmid and Fugene6 were mixed with DMEM according to the manufacturer's recommendations. HEK-293-MSR cells were treated with trypsin, suspended in growth media and added to the Plasmid/Fugene6 mixture. Transfected cells were dispensed into white 96-well growth plates (Corning) or 150 mm cell culture discs at 60-80% confluence.
5-HT Uptake Inhibition Assays
Uptake assays were performed 40-50 hours after transfection. […] Cells were lysed in 50 μl MicroScint-20 (Packard), and the radiolabeled serotonin accumulated in the cells was quantified in a Packard TopCounter NXT microplate scintillation counter. Exact [^3H]5-HT reaction concentrations were determined in a Packard TRI-CARB® Liquid scintillation analyzer. […]

T1 sequence (P31645 whole entry): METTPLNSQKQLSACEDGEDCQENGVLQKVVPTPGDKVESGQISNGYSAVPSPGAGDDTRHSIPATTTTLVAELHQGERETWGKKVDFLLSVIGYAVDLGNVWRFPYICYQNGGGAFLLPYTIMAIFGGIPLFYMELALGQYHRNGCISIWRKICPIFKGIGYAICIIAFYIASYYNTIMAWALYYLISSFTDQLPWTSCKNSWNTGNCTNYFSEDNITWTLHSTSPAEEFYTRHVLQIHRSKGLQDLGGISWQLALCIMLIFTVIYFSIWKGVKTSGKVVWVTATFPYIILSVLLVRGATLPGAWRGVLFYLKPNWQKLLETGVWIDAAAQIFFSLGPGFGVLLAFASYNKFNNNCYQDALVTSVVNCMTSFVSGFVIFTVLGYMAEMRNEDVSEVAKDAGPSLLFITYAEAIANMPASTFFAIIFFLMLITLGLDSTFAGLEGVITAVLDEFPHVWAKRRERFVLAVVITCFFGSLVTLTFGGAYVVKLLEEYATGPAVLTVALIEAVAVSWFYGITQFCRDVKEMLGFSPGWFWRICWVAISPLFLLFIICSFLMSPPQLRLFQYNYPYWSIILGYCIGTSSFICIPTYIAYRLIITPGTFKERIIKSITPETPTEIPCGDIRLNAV

## N#CCSc1cccc2ccccc12 [Example 36, (Naphthalen-1-Ylsulfanyl)-Acetonitrile]
hSERT [1]; concentration of allosteric compound inducing 50% attenuation of the off-rate of the radioligand from SERT, 10 μM fluoxetine in dissociation buffer, read-out: EC50
  EC50: 700 nM
hSERT [1]; estimated upper plateau of sigmoidal response curve: how many folds the off-rate of bound radioligand from SERT can be attenuated, N/A = No activity
  Max. Stability (maximum stabilization factor): 27
hSERT [2]
  reduction of S-citalopram IC50 values (add-on effect): up to 2 fold
